In patent US20050175589A1, “Anti-neoplastic viral agents” (priority 2001, published 2005):

What was measured:
[1] = tested on: Hct116 cells with homozygous deletion of p53
Protocol: (§1) (a) Sensitivity of colon cancer cell lines to 5-FU. Cells were stained four days after addition of the drug. (b to e, g) Cytopathic effect assays using 10-fold dilutions of virus starting from a concentration of 10 pfu/cell. Fresh medium was added four days after infection and cells were stained 5 (SW480), 7 (Hct116 and Hct116^−/−), or 8 (HT29 and HLF) days post-infection. (f) 5-FC was added either immediately after infection (early, E) or four days after infection (late, L). Cells were stained 8 days after infection.
(§2) Cells in six-well plates were infected with ten-fold dilutions of virus in DMEM. Two hours after infection, the medium was replaced with complete medium containing or not 100 μg/ml of 5-fluorocytosine (Sigma, St. Louis, USA). Four days after infection, new medium was added. Late addition of 5-FC was performed at that time. After five to eight days (see legend to FIG. 4), the cells were fixed with 4% formaldehyde in PBS and stained with crystal violet. For the sensitivity to 5-fluorouracil (Sigma, St. Louis, USA), the drug was added at various concentrations for four days before staining with crystal violet.

SW480 cells = tested on: SW480 cells
Protocol: as §1, §2

With `O=c1[nH]cc(F)c(=O)[nH]1` [5-FU, 5-fluorouracil] the “resistance of p53-deleted Hct116 cells to 5-FU relative to parental cells” value [1] was “only slightly more resistant than the parental cells” and the “resistance of SW480 cells to 5-FU relative to the other cell lines” value (SW480 cells) was “at least 10 fold”.
